Reference: patent US7585896B2, “Composition for the prevention and treatment of kidney dysfunctions and diseases” (Sigma-Tau Industrie Farmaceutiche Riunite S.p.A., priority 1999, dated 2009)

Assays:
[1] = tested on: glycerol-induced renal insufficiency in male Sprague-Dawley rats; assay: Protective activity against glycerol-induced renal insufficiency; assay type: in vivo; details: for Urea (plasma): glycerol-injected rats, 24 h after injection; for effect on the elevated plasma urea and creatinine concentrations: glycerol-induced acute renal insufficiency, oral or intraperitoneal, result in words
[2] = tested on: isolated perfused kidney; assay: Protective activity against lithium-induced nephrotoxicity in the isolated perfused kidney (histamine release); parameters: species or system Wistar rats; details: for Percentage changes vs controls in histamine released: lithium 6 mEq/L after 20 min perfusion of carnitine 200 mM/L; for effect on histamine release induced by the renal toxic action of lithium: isolated perfused kidney, result in words
Source text: This test was used to assess the protective activity of the combination of acetyl L-carnitine plus propionyl L-carnitine against the well-known nephrotoxic activity of lithium. Lithium presents a particular tropism at the renal tubule level and can cause tubular necrosis.
In this test Wistar rates with a mean body weight of 400 g were anaesthetised and nephrectomised. The excised kidneys were perfused according to the technique described by Shureck (Shureck H. J., Pflügers Arch., 354, 1975) as modified by Maach (Maach T., Kidney Int., 30, 142, 1986; Maach T., Ann. J. Physiol., 238, 1980).
Immediately after isolation of the kidney, the renal artery and outflow vein were catheterised and the resulting preparation was placed in a chamber containing a Krebs solution heated to 37° C. The oxygenised Krebs solution was pumped into the system by means of a pulsatile pump at a rate of 0.8 ml/min/g.
Lithium was administered via the perfusion pump at a dose of 6 mEq/L after perfusion during the previous 20 minutes of a solution containing acetyl L-carnitine or propionyl L-carnitine (200 mM/L) or a combination of the two compounds.
After the lithium infusion, the venous perfusion fluid was collected at five-minute intervals for fifteen minutes and its histamine content was measured with a fluorometric method (Hakanson R., Anal. Biochem., 47, 356, 1972). Histamine release is considered a marker of the severity of tubular damage (Bertelli A., Drugs Exptl. Clin Res., 7, 53, 1981).

[3] = tested on: ochratoxin A-induced renal toxic lesions in Wistar rats; assay: Protective activity against renal abnormalities induced by ochratoxin A; assay type: in vivo; details: for ALP (alkaline phosphatase) / GGT (gamma-glutamyl transferase) / NAG (N-acetyl-β-D-glucosaminidase): 24-hour urine, 300 mg/kg (of each drug) oral for 10 days with ochratoxin A; for effect on enzymuria induced by ochratoxin and serum creatinine levels: ochratoxin-intoxicated rats, result in words
Source text: In experimental animals, particularly rats, it is possible to reproduce tubulo-interstitial nephropathy similar to that encountered in man and known as Balkans Endemic Nephropathy (BEN) by means of the administration of a mycotoxin produced by Aspergillus ochraceus which is present as a contaminant in various foodstuffs and is known as ochratoxin A (Kniper-Goodman T., Scott P., Biomed. Environ. Sci., 2, 179, 1989).
The administration of small amounts of this toxin causes a series of renal abnormalities in the rat with a reduction in glomerular filtration and lesions at the level of the proximal tubule to such an extent as to cause renal atrophy.
In this test a batch of Wistar rats with a mean body weight of 200 g was divided into various groups, one of which served as a control group, while another was administered […] of ochratoxin (Sigma Chemical, St. Louis, Mo. U.S.A.) by gastric probe every 48 hours for a period of ten days. The remaining groups, in addition to ochratoxin, also received oral administrations of 300 mg/ks of acetyl L-carnitine or 300 mg/kg of propionyl L-carnitine or a combination of the two carnitines for the entire 10-day treatment period.
At the end of treatment, the animals were placed in metabolic cages and 24-hour urine was submitted to spectrophotometric evaluation of the enzymes alkaline phosphatase (ALP), gamma-glutamyl transferase (GGT) and N-acetyl-β-D-glucosaminidase (NAG) as indicators of renal damage.
Serum creatinine concentrations were also measured.

[4] = 5 minutes post-lithium-infusion
[5] = 10 minutes post-lithium-infusion
[6] = 15 minutes post-lithium-infusion

| SMILES | Urea (plasma) ([1]; 100 mg/kg (of each drug) i.p.) [mg/100 ml] | Urea (plasma) ([1]; 100 mg/kg (of each drug) oral) [mg/100 ml] | Urea (plasma) ([1]; 500 mg/kg (of each drug) i.p.) [mg/100 ml] | Urea (plasma) ([1]; 500 mg/kg (of each drug) oral) [mg/100 ml] | effect on the elevated plasma urea and creatinine concentrations [1] | Percentage changes vs controls in histamine released [2, 4] [%] | Percentage changes vs controls in histamine released [2, 5] [%] | Percentage changes vs controls in histamine released [2, 6] [%] | effect on histamine release induced by the renal toxic action of lithium [2] | ALP (alkaline phosphatase) [3] [U/I] | GGT (gamma-glutamyl transferase) [3] [U/I] | NAG (N-acetyl-β-D-glucosaminidase) [3] [U/I] | effect on enzymuria induced by ochratoxin and serum creatinine levels [3] |
| --- | --- | --- | --- | --- | --- | --- | --- | --- | --- | --- | --- | --- | --- |
| CC(=O)O[C@H](CC(=O)[O-])C[N+](C)(C)C [ACL, Acetyl L-carnitine] | 104.7 ± 12.4 | 110.9 ± 21.6 | 98.5 ± 10.6 | 105.4 ± 29.4 | only slight changes | 55.8 ± 6.1 | 36.8 ± 3.1 | 12.5 ± 1.5 | reduced | 8.8 ± 1.1 | 17.2 ± 1.9 | 48.8 ± 5.1 | reduced |
| CCC(=O)O[C@H](CC(=O)[O-])C[N+](C)(C)C [PC, Propionyl L-carnitine] | 100.5 ± 9.8 | 107.4 ± 30.2 | 80.2 ± 6.6 | 90.2 ± 31.4 | only slight changes | 45.8 ± 4.5 | 30.4 ± 2.9 | 10.4 ± 0.9 | reduced | 7.5 ± 0.9 | 16.5 ± 2.2 | 44.2 ± 4.5 | reduced |
